ChEMBL document CHEMBL1201862, “PubChem BioAssay data set” (2004)
Each block holds one compound with its values, some of them ahead of it. Active and inactive are the calls of the source.

Tests used:
[1] = target: T1, Tyrosine-protein phosphatase non-receptor type 7 (Homo sapiens, UniProt P35236); experiment: inhibitors of human HePTP phosphatase, […], biochemical, absorbance, leukemia target (AID 521); assay type: functional
T1 sequence (P35236 whole entry): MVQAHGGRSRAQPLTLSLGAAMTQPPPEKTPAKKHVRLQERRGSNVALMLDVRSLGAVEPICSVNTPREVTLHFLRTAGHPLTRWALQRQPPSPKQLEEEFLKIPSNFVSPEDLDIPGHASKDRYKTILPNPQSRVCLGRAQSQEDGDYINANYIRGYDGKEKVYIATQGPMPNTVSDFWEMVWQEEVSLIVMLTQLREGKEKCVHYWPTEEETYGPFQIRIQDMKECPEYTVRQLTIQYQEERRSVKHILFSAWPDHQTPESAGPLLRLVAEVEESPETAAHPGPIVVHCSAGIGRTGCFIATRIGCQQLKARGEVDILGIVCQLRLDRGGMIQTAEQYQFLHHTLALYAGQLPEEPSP

[2] = cytotoxicity in HEK-293T cells, dose response, cytotoxicity control for TCR NF-kB inhibitor project, luminescence, T-cell screen hits (AID 489026); assay type: functional, cell-based;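 note: cells exposed to compound about 14 hours before the viability readout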
[3] = target: Heat shock protein HSP 90-alpha (Homo sapiens, UniProt P07900); experiment: Luminescence-based dose response biochemical high throughput screening assay for inhibitors of the Heat Shock Protein 90 (HSP90). [Related pubchem assays: 1831 (Summary AID.), 1846 (Confirmation screen.), 1789 (Primary screen.)]
[4] = target: Mitogen-activated protein kinase 10 (Homo sapiens, UniProt P53779); experiment: Dose response biochemical screening assay for inhibitors of c-Jun N-Terminal Kinase 3 (JNK3). [Related pubchem assays: 746 ]
Chain of Mitogen-activated protein kinase 10 (P53779 whole entry): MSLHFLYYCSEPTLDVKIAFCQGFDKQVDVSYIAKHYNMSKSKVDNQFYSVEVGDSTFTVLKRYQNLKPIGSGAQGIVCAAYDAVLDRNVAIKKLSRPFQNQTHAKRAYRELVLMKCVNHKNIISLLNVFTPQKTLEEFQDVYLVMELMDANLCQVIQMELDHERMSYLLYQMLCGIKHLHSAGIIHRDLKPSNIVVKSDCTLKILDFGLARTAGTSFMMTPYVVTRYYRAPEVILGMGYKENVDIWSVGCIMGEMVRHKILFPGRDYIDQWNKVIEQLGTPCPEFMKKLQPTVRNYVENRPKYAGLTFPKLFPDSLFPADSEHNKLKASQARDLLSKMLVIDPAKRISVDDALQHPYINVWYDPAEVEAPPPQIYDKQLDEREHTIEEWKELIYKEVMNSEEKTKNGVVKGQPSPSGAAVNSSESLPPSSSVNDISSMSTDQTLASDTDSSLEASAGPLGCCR

[5] = THP-1 cell cytotoxicity, dose response, cytotoxicity control for Vif-APOBEC3G degradation inhibitor project, THP-1 cells (AID 1117359); assay type: functional; settings: Human immunodeficiency virus 1, THP-1
[6] = inhibitors of Vif binding to APOBEC3G peptide, primary screen, biochemical, TR-FRET, GST-Vif 1-94, biotin-A3G peptide, dose response retest (AID 1117319); assay type: functional;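 note: TR-FRET signal of purified GST-Vif binding a biotinylated A3G peptide; inhibitors lower the FRET signal by blocking Vif and A3G binding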
[7] = target: T2, COUP transcription factor 2 (Homo sapiens, UniProt P24468); experiment: Luminescence-based cell-based high throughput dose response assay to identify inhibitors of COUP-TFII (NR2F2).; assay type: functional;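 note: HEK293 cells transiently cotransfected with COUP-TFII expression vector and reporter; luciferase reporter luminescence driven by COUP-TFII from the pX2-168 reporter plasmid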
T2 sequence (P24468 whole entry): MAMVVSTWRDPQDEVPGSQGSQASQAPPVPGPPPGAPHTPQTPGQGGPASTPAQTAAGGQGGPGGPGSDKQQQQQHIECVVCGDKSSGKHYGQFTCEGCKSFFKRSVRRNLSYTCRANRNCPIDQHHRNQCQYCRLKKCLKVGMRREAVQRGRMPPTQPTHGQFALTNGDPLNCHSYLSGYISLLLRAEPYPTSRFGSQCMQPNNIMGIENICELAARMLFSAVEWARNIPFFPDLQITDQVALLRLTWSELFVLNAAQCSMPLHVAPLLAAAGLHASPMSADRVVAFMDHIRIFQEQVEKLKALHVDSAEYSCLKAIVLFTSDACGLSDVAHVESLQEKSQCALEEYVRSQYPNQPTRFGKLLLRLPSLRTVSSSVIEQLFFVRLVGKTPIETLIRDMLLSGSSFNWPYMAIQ

[8] = inhibitors of intracellular T. cruzi replication, confirmation, NIH3T3 host cells, beta-gal luminescence (AID 2044); assay type: functional, cell-based;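 note: intracellular parasites grown in NIH/3T3 mouse fibroblasts as host cells; luminescent beta-galactosidase reporter signal from transgenic T. cruzi replicating inside host cells; inhibitors lower the luminescence signal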
[9] = Vero cell cytotoxicity, dose response, cytotoxicity control for Vif-APOBEC3G degradation inhibitor project, Vero cells (AID 1117358); assay type: functional; settings: Human immunodeficiency virus 1, Vero
[10] = cytotoxicity toward NIH3T3 fibroblasts, dose response, counter-screen, cell-based, ATP luminescence, mouse fibroblasts (AID 2010); assay type: functional;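 note: cells exposed to compound for about 90 hours before reading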

IC50 [4]: 10.6 µM (not active)
SMILES: Cc1ccccc1-n1nc(C)c2cc(C(=O)NCc3cccnc3)sc21

IC50 [4]: 4.19 µM (active)
SMILES: COc1cc(NC(=O)C2CC(c3cccc(OC)c3OC)=NO2)cc(OC)c1OC (centres undefined)

IC50 [7]: 5.2 µM (active)
SMILES: COc1ccc(CCNC(=O)C(C)n2nc(C)c3c(C)n(-c4ccc(C)cc4)nc3c2=O)c(OC)c1 (centres undefined)

The remaining lines, values behind:

SMILES: O=C(O)C1(c2ccc(Cl)cc2)CCC1
IC50 [1]: > 100 µM (not active)

SMILES: CN(C)c1ccc(-c2nn3c(-c4ccccc4Cl)nnc3s2)cc1
IC50 [2]: > 80 µM (inactive)
IC50 [1]: > 100 µM (not active)

SMILES: COc1cc(N2Cc3ccccc3C2)ccc1C=O
IC50 [3]: > 7 µM (active)

SMILES: CC(NC(=O)c1ccco1)C(c1cccs1)N1CCOCC1 (centres undefined)
IC50 [1]: > 100 µM (not active)

SMILES: COc1ccc(CCNCc2ccc(C)s2)cc1OC
CC50 [5]: > 40 µM (active)
IC50 [6]: > 100 µM (active)

SMILES: CCc1ccc(N/C(SCc2cccc(F)c2)=C(/C#N)C(=O)NCc2ccco2)cc1
EC50 [8]: 1.7 µM (active)
CC50 [9]: > 40 µM (active)
EC50 [10]: 10.4 µM (active)

SMILES: C=CCOc1c(CNc2cccc(C(=O)O)c2)cccc1OC
IC50 [3]: 2.39 µM (active)
